Consider three molecules from US20060100284A1, “Growth promotor” (priority 2002, published 2006).

The test system of assay [1] is weaned pigs and swine grown for pork meat. The note with it: Partanen et al. 2002; cited from earlier work.
For assay [2], the system named is weaned pigs and growing swine. As to the kind of experiment: Swine feeding test with feed additives. Type of assay: in vivo. The method, then: The composition of the invention was tested using weaned pigs and growing swine. The test comprised a total of 240 swine from 30 different litters. […] The composition of the invention was compared to a control without additives and to an antibiotic feed additive (Avilamycin) at the weaning and growth stage.

Assay [3] relates to slaughter animals. The note with it: Kirchgessner et al. 1995; cited from earlier work.
The mark [4] stands for this setting: Growth and final growth stage, additive in feed (6 g/kg for acids).
[5] abbreviates: Weaning stage, additive in feed (8 g/kg for acids).

As to `O=CO` [F, formic acid], the “growth promoter effect in feed” value in assay [1] is given as “acts as a growth promoter”. Further, the Daily growth in assay [2] (setting [4]) amounted to 869 g/day; in assay [2] (setting [5]) it was 308 g/day. Further, the Final weight in assay [2] (setting [4]) is given as 106.0 kg; in assay [2] (setting [5]), 18.5 kg.
Turning to `C/C=C/C=C/C(=O)O` [sorbic acid], the “increase in weight of slaughter animals” value in assay [3] is listed as “enhanced”.
Regarding avilamycin, the Daily growth was determined as 845 g/day in assay [2] (setting [4]) and 335 g/day in assay [2] (setting [5]). Besides, the values for the Final weight in assay [2] (setting [4]) and in assay [2] (setting [5]) were 107.1 kg and 19.3 kg, respectively.
